Counter-ions that a name gives are not always drawn. Like-named read-outs stand apart in the source and are kept apart here.
What was measured:
[1] = biological target: LSD1 (Homo sapiens (Human), UniProt O60341); experiment: LSD1 enzyme activity detection (HTRF); format: biochemical; conditions: read-out: Inhibition of enzymatic activity of LSD1 IC50
[2] = tested on: NCI-H1417 cells; experiment: In vitro cell proliferation detection (CellTiter-Glo, 7 days); format: cell-based
[3] = Homo sapiens, 168 h, NCI-H1417 cells, 7 days, CellTiter-Glo, read-out: NCI-H1417 proliferation inhibition IC50

IC50 ([1]; HTRF, H3K4me1 substrate) [µM] | IC50 [2, 3] [nM] | SMILES | IC50 [1] [µM] | IC50 ([2]; Homo sapiens, NCI-H1417, 168 h, read-out: NCI-H1417 proliferation inhibition IC50(nM)) [nM] | IC50 ([2]; NCI-H1417 cells, 7 days, CellTiter-Glo, read-out: NCI-H1417 proliferation inhibition IC50) [nM]
0.0012 ± 0.0002 | 0.29 | Cc1ccc(-c2c(-c3ccc(C#N)c(F)c3)nc(N3CC4CC3CC4N)n3ccnc23)cc1O (stereo not drawn) [Example 160, 4-(5-(5-amino-2-azadicyclo[2. 2.1]heptan-2-yl)-8-(3-hydroxy-4-methylphenyl)imidazolo[1,2-c]pyrimidin-7-yl)-2-fluorobenzonitrile hydrochloride] |  |  | 
0.00218 | 4.91 | Cn1cc2cc(-c3cnc(N4CCC(N)CC4)c(C#N)c3-c3ccc(C#N)c(F)c3)ccc2n1 [Example 84, 2-(4-aminopiperidin-1-yl)-4-(4-cyano-3-fluorophenyl)-5-(2-methyl-2H-indazol-5-yl) nicotinonitrile hydrochloride] |  |  | 
0.0198 | 2.53 | CS(=O)(=O)N1CCN(C(=O)c2cc(CN[C@@H]3C[C@H]3c3ccc(F)cc3)nc(-c3ccc(-c4ccn[nH]4)cc3)n2)CC1 [Example 226] |  |  | 
0.021 | 224 | COc1ccc(-c2c(O)cc(N(C)CCCN)nc2-c2ccc(C#N)c(F)c2)cc1O [Example 62] |  |  | 
0.0034 ± 0.0013 | 6.92 | COc1ccc(-c2cnc(N3CCC(N)CC3)c(C#N)c2-c2ccc(C#N)c(F)c2)cc1F [Example 68, 2-(4-aminopiperidin-1-yl)-4-(4-cyano-3-fluorophenyl)-5-(3-fluoro-4-methoxyphenyl) nicotinonitrile hydrochloride] |  |  | 
0.0357 | 31.8 | COc1ccc(-c2c(O)cc(N3CCC(N)CC3)nc2-c2ccc(C#N)c(F)c2)c(F)c1F [Example 35, 4-(6-(4-aminopiperidin-1-yl)-3-(2,3-difluoro-4-methoxyphenyl)-4-hydroxypyridin-2-yl)-2-fluorobenzonitrile] |  |  | 
0.0265 | 387 | CN(CCCN)c1cc(O)c(-c2ccc(Cl)c(O)c2)c(-c2ccc(C#N)c(F)c2)n1 [Example 61, 4-(6-((3-aminopropyl)(methyl)amino)-3-(4-chloro-3-hydroxyphenyl)-4-hydroxypyridin-2-yl)-2-fluorobenzonitrile] |  |  | 
0.0016 ± 0.0003 | 2.53 | COc1ccc(-c2cnc(N3CCC[C@@H](N)C3)c(C#N)c2-c2ccc(C#N)c(F)c2)cc1O [Example 78, (R)-2-(3-aminopiperidin-1-yl)-4-(4-cyano-3-f1uorophenyl)-5-(3-hydroxy-4-methoxyphenyl) nicotinonitrile] |  |  | 
0.0049 ± 0.0025 | 1.37 | COc1ccc(-c2cnc(N3CC4CCC3CC4N)c(C#N)c2-c2ccc(C#N)c(F)c2)cc1O (stereo not drawn) [Example 76, 2-(5-amino-2-azabicyclo[2.2.2]octane-2-yl)-4-(4-cyano-3-fluorophenyl)-5-(3-hydroxy-4-methoxyphenyl) nicotinonitrile] |  |  | 
0.00338 | 11.8 | N#Cc1ccc(-c2nc(N3CCC(N)CC3)cc(O)c2-c2ccc(OC(F)(F)F)c(O)c2)cc1F [Example 29, 4-(6-(4-aminopiperidin-1-yl)-4-hydroxy-3-(3-hydroxy-4-(trifluoromethoxy)phenyl)pyridin-2-yl)-2-fluorobenzonitrile hydrochloride] |  |  | 
0.0001 ± 1e-05 | 1.1 ± 0.7 | COc1ccc(-c2c(C)nc(N3CCC(N)CC3)c(C#N)c2-c2ccc(C#N)c(F)c2)cc1O [Example 276, 2-(4-aminopiperidin-1-yl)-4-(4-cyano-3-fluorophenyl)-5-(3-hydroxy-4-methoxyphenyl)-6-meth ylpyridine-3-carbonitrile] |  |  | 
0.0225 | 30.2 | COC(=O)C1CCN(C(=O)c2cc(CN[C@@H]3C[C@H]3c3ccc(F)cc3)nc(-c3ccc(-n4cccn4)cc3)n2)CC1 [Example 231] |  |  | 
0.0105 | 38.7 | N#Cc1ccc(-c2nc(N3CCC(N)CC3)cc(O)c2-c2ccc(N3CCOCC3)cc2)cc1F [Example 21, 4-(6-(4-aminopiperidin-1-yl)-4-hydroxy-3-(4-morpholinophenyl)pyridin-2-yl)-2-fluorobenzonitrile hydrochloride] |  |  | 
0.00227 | 6.61 | Cc1noc2cc(-c3c(-c4ccc(C#N)c(F)c4)nc(N4CCC(N)CC4)c4ncoc34)c(F)cc12 [Example 279, 4-(4-(4-aminopiperidin-1-yl)-7-(5-fluoro-3-methylbenzo[d]isoxazol-6-yl)oxazolo[4,5-c]pyridin-6-yl)-2-fluorobenzonitrile] |  |  | 
0.0717 | 868 | CC(C)(O)C#Cc1ccc(-c2c(O)cc(N3CCC(N)CC3)nc2-c2ccc(C#N)c(F)c2)cc1F [Example 25, 4-(6-(4-aminopiperidin-1-yl)-3-(3-fluoro-4-(3-hydroxy-3-methyl-1-alkynyl-1-yl)phenyl)-4-hydroxypyridin-2-yl)-2-fluorobenzonitrile hydrochloride] |  |  | 
0.0215 ± 0.0076 | 121 | CC(C)(O)Cc1ccc(-c2c(O)cc(N3CCC(N)CC3)nc2-c2ccc(C#N)c(F)c2)cc1F [Example 39, 4-(6-(4-aminopiperidin-1-yl)-3-(3-fluoro-4-(2-hydroxy-2-methylpropyl)phenyl)-4-hydroxypyridin-2-yl)-2-fluorobenzonitrile hydrochloride] |  |  | 
0.0018 ± 0.0008 | 11 | Cc1noc2cc(-c3c(-c4ccc(C#N)c(F)c4)nc(N4CCC(N)CC4)c4nc[nH]c34)c(F)cc12 [Example 272, 4-(4-(4-aminopiperidin-1-yl)-7-(5-fluoro-3-methylbenzo[d]isoxazol-6-yl)-1H-imidazolo[4,5-c]pyridin-6-yl)-2-fluorobenzonitrile] |  |  | 
0.0499 | 104 | COc1ccc(-c2c(O)cc(N3CCN(C)CC3)nc2-c2ccc(C#N)c(F)c2)cc1F [Example 15, 2-fluoro-4-(3-(3-fluoro-4-methoxyphenyl)-4-hydroxy-6-(4-methylpiperazin-1-yl)pyridin-2-yl)benzonitrile] |  |  | 
 |  | CCOc1cc(N2CCC(N)CC2)nc(-c2ccc(C#N)c(F)c2)c1-c1ccc(OC)c(O)c1 [Example 103, 4-(6-(4-aminopiperidin-1-yl)-4-ethoxy-3-(3-hydroxy-4-methoxyphenyl)pyridin-2-yl)-2-fluorobe nzonitrile] | 0.0006 ± 0.0002 | 6.27 | 
0.0152 ± 0.0037 | 38 | CNC1CCCN(c2cc(O)c(-c3ccc(OC)c(F)c3)c(-c3ccc(C#N)c(F)c3)n2)C1 (stereo not drawn) [Example 16, 2-fluoro-4-(3-(3-fluoro-4-methoxyphenyl)-4-hydroxy-6-(3-(methylamino)piperidin-1-yl)pyridin-2-yl)benzonitrile] |  |  | 
0.000331 | 1120 | Cc1ccc(-c2c(-c3ccc(C#N)cc3)cc3c(N4CCN(C)CC4)nccn23)cc1 [Example 190, 4-(1-(4-methylpiperazin-1-yl)-6-(p-tolyl)pyrrolo [1,2-a]pyrazin-7-yl) benzonitrile] |  |  | 
0.000198 | 0.214 | N#Cc1ccc(-c2nc(N3CCC(N)CC3)n3ccnc3c2-c2ccc(Cl)c(O)c2)cc1F [Example 142, 4-(5-(4-aminopiperidin-1-yl)-8-(4-chloro-3-hydroxyphenyl)imidazolo[1,2-c]pyrimidin-7-yl)-2-fluorobenzonitrile formate] |  |  | 

SMILES | IC50 ([1]; HTRF, H3K4me1 substrate) [µM] | IC50 [2, 3] [nM] | IC50 [1] [µM] | IC50 ([2]; Homo sapiens, NCI-H1417, 168 h, read-out: NCI-H1417 proliferation inhibition IC50(nM)) [nM] | IC50 ([2]; NCI-H1417 cells, 7 days, CellTiter-Glo, read-out: NCI-H1417 proliferation inhibition IC50) [nM]
Cc1noc2cc(-c3sc(C(=O)N4C5CCC4CC(N)C5)cc3-c3ccncc3)c(F)cc12 (stereo not drawn) [Example 204, (3-amino-8-azabicyclo [3.2.1]octane-8-yl) (5-(5-fluoro-3-methylbenzo [d]isoxazol-6-yl)-4-(pyridin-4-yl)thiophen-2-yl)methanone hydrochloride] | 0.0122 ± 0.0073 | 118 |  |  | 
N#Cc1ccc(-c2nc(N3C4CCC3CC(N)C4)n3ccnc3c2-c2cc3nc[nH]c3cc2F)cc1F (stereo not drawn) [Example 172, 4-(5-(3-amino-8-azabicyclo[3.2.1]octane-8-yl)-8-(6-fluoro-1H-benzo[d]imidazole-5-yl)imidazolo [1,2-c]pyrimidin-7-yl)-2-fluorobenzonitrile] | 0.005 ± 0.0041 | 149 |  |  | 
Cc1sc(C(=O)N2C3CCC2CC(N)C3)cc1-c1ccc(C#N)c(F)c1 (stereo not drawn) [Example 199, 4-(5-(3-amino-8-azadicyclo [3.2.1]octane-8-carbonyl)-2-methylthiophene-3-yl)-2-fluorobenzonitrile hydrochloride] | 0.072 | > 1000 |  |  | 
Cc1ccc(-c2c(-c3ccc(C#N)c(F)c3)nc(N3CC4CC(C3)C4N)n3ccnc23)cc1O (stereo not drawn) [Example 165, 4-(5-(6-amino-3-azabicyclo [3.1.1]heptane-3-yl)-8-(3-hydroxy-4-methylphenyl)imidazolo[1,2-c]pyrimidin-7-yl)-2-fluorobenzonitrile] | 0.0034 ± 0.0015 | 4.68 |  |  | 
CCCCCc1noc2cc(-c3sc(C(=O)N4C5CCC4CC(N)C5)cc3-c3ccc(C#N)c(F)c3)c(F)cc12 (stereo not drawn) [Example 8, 4-(5-(3-amino-8-azabicyclo[3.2.1]octane-8-carbonyl)-2-(5-fluoro-3-pentylbenzo[d]isoxazol-6-yl)thiophen-3-yl)-2-fluorobenzonitrile] | 0.0003 ± 4e-05 | 6.94 |  |  | 
N#Cc1ccc(-c2cc(C(=O)N3C4CCC3CC(N)C4)sc2-c2ccccn2)cc1F (stereo not drawn) [Example 201, 4-(5-(3-amino-8-azabicyclo [3.2.1]octane-8-carbonyl)-2-(pyridin-2-yl)thiophen-3-yl)-2-fluorobenzonitrile Hydrochloride] | 0.0268 | 384 |  |  | 
N#Cc1ccc(-c2nc(N3C4CCC3CC(N)C4)n3ccnc3c2-c2ccc(Cl)c(O)c2)cc1F (stereo not drawn) [Example 158, 4-(5-(3-amino-8-azabicyclo[3.2.1]octane-8-yl)-8-(4-chloro-3-hydroxyphenyl)imidazolo[1,2-c]pyrimidin-7-yl)-2-fluorobenzonitrile hydrochloride] | 0.0002 ± 0.0002 | 0.763 |  |  | 
COc1ccc(C2CC2NCc2c(OC)cc(N3CCC(N)CC3)nc2-c2ccc(C#N)c(F)c2)cc1F (stereo not drawn) [Example 252] | 0.0737 |  |  |  | > 1000
